Where two headings read alike, the source gives them in different places.
Experiments:
[1] = Cytotoxic concentration (CC50), MTS; format: cell-based; details: African green monkey, Vero cells
Procedure: Cytotoxic concentrations (CC50) were also studied using Vero cells. Briefly, the 10^4 cells were seeded into each well of 96-well plates. After an overnight incubation, phenolic lipids were serially diluted in DMSO to the final concentrations as follows; 25, 50, 100, 200, 300, 400, and 500 µM. Each concentration was performed in quadruplicates. DMSO at 1% was used as a mock treatment referring to 100% cell viability. Cells were incubated for 48 h before cell viability was accessed using CellTiler 96® Aqueous One Solution Cell Proliferation Assay kit (Promega, Wisconsin, USA). Non-linear regression analysis was used to determine cytotoxic concentrations (CC50) of each experiment.

DENV2 NGC = test: Efficacy study (EC50) in DENV2 infected Vero cells, plaque titration; format: cell-based, Dengue virus; details: for EC50: DENV2 NGC (M.O.I. of 0.1) infected Vero cells, plaque titration, 3 days; for TI (therapeutic index, CC50/EC50): Vero CC50 / DENV2 EC50
Procedure: Next, we studied the efficacies (EC50) of the phenolic lipid homologues against DENV2 infectivity in Vero cells. Briefly, compounds at 10 different concentrations were added to DENV2-infected Vero cells (M.O.I. of 0.1) during and post infection and the viral inhibition was determined by plaque titration. […] Noted that anacardic acids were major components of CNSL extracts and all homologues were purified directly from CNSL itself.
Next, each homologue was analyzed for effective concentration (EC50). Vero (5 × 10^4) cells were seeded, and infected with DENV2 (M.O.I. of 0.1) as previously described. Phenolic lipid mixtures and homologues were serially diluted in DMSO to the final concentrations as follows; 0, 0.5, 1, 1.5, 2, 2.5, 5, 7.5, 10, 25, and 50 µM. DMSO at the concentration of 1% was used as a mock treatment referring to 100% infection. Infected cells were treated with the designated compounds during and post infection. Supernatants were collected at 3 days after infection for analysis of virion production by plaque titration. Non-linear regression analysis was used to determine the effective concentrations. […] The therapeutic index (TI) was a ration of CC50/EC50 of the compound.

hepatitis C virus (HCV) = tested on: hepatitis C virus (HCV); parameters: method as in PMID 25658101; details: cited from earlier work
AGS = tested on: AGS; parameters: method as in PMID 25726174; details: cited from earlier work
K562 = tested on: K562; parameters: method as in PMID 25726174; details: cited from earlier work
Solubility in DMSO = format: physicochemical
[2] = tested on: BHK-21/DENV2 replicon cells; test: Replicon inhibition study, RT-qPCR of DENV2 NS1; format: cell-based, Dengue virus; details: 72 h
Procedure: We analyzed the replication inhibition using BHK-21/DENV2 replicon cells stably expressed the non-structural proteins. Cardol triene at 10 µM and 20 µM were added to the replicon cells for 72 h and the replication inhibition was accessed by RT-qPCR of DENV2 NS1. Ribavirin, a known inhibitor of flaviviral replication, was used as a positive inhibition control. […] Replicon cell viability under cardol triene treatment was also analyzed using an MTS assay. […] Therefore, we concluded that cardol triene inhibited DENV RNA replicon replication, potentially in dose-dependent manner.
BHK-21 (5 × 10^4) cells expressing DENV-2 replicon (BHK-21/DENV2)[44] were seeded as previously described. Cardol triene at 10 µM and 20 µM, DMSO, and ribavirin (TargetMol, USA) were added to the replicon cells and incubated at 37 °C for 3 days. Cells lysates were collected and viral RNA was quantified by RT-qPCR as previously described. Data were reported as percent inhibition compared with ribavirin. Three biological replicates were performed and results were means and SEM of all replicates.

[3] = Dengue virus, 72 h, read-out: EC50

SMILES	CC50 at 48 h [1]	EC50 (DENV2 NGC; [3])	TI (therapeutic index, CC50/EC50) (DENV2 NGC)	also measured
CCC/C=C/C/C=C/CCCCCCCc1cccc(O)c1C(=O)O [Anacardic acid diene, 6-[8(Z), 11(Z)-pentadecadienyl]salicylic acid]	112 ± 8.57 µM	–	–	EC50 (DENV2 NGC): Not inhibited
CCCCCC/C=C\CCCCCCCc1cccc(O)c1C(=O)O [Anacardic acid monoene, 6-[8(Z)-pentadecenyl]salicylic acid]	74 ± 0.85 µM	12.6 ± 0.84 µM	5.88	–
CCCCCCCCCCCCCCCc1cccc(O)c1C(=O)O [Anacardic acid saturated, 6-pentadecylsalicylic acid]	66.3 ± 1.58 µM	4.31 ± 1.17 µM	15.39	EC50 (hepatitis C virus (HCV)): 7.25 µM; CC50 (AGS): 41.6 µM; CC50 (K562): 25.4 µM
C=CC/C=C/C/C=C/CCCCCCCc1cccc(O)c1C(=O)O [Anacardic acid triene, 6-[8(Z), 11(Z), 14-pentadecatrienyl]salicylic acid]	115 ± 14.1 µM	7.48 ± 2.14 µM	15.38	–
CCCCCCCCCCCCCCCc1cccc(O)c1 [Cardanol saturated]	43.5 ± 1.1 µM	5.89 ± 2.83 µM	7.39	–
C=CC/C=C/C/C=C/CCCCCCCc1cccc(O)c1 [Cardanol triene, 3-[8(Z), 11(Z), 14-pentadecatrienyl]phenol]	–	–	–	solubility in DMSO (Solubility in DMSO): insoluble
CCCCCCCCCCCCCCCc1cc(O)cc(O)c1 [Cardol saturated]	58.75 ± 0.43 µM	12.7 ± 0.67 µM	4.62	–
NC(=O)c1ncn([C@@H]2O[C@H](CO)[C@@H](O)[C@H]2O)n1 [ribavirin, reference compound]	–	–	–	DENV2 RNA inhibition ([2]; 10 µM): 98.42 ± 0.68%; DENV2 RNA inhibition ([2]; 20 µM): 98.09 ± 0.72%

Source: paper PMC6226472, “Cardol triene inhibits dengue infectivity by targeting kl loops and preventing envelope fusion” (Scientific Reports, 2018)
